# Test results taken from the supplement of paper PMC8671470.
# ± gives the standard deviation of the averaged measurements.
# Tested on: HL-60
# Assay: cell viability (% survival relative to DMSO control); higher = less cytotoxic
# Settings: 0.1 µM; 72 h; co-treatment: AZD3965 100 nM
# In short: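 Area under the curve, where listed, was derived from four-parameter log-logistic fits with drc and PharmacoGx. These fits used CellTiter-Glo viability from HL-60 cells in RPMI 1640 with 10% FBS, normalised to DMSO wells and wells holding 10 μM proteasome inhibitor. The full library was rescreened on 384-well plates in duplicate at five tenfold concentrations, 1–10,000 nM, with DMSO or 100 nM of one of three metabolic inhibitors, for 72 h at 37 °C, 5% CO2.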
row,SMILES,cell viability
1,CCN(CC)C(=S)SSC(=S)N(CC)CC [Disulfiram],98.7 ± 8.1%
2,c1cc(-c2cnn3cc(-c4ccc(OCCN5CCCCC5)cc4)cnc23)ccn1 [Dorsomorphin],99.7 ± 1.5%
3,C[C@H]1c2cccc(O)c2C(=O)C2C(=O)[C@]3(O)C(=O)C(C(N)=O)C(=O)[C@@H](N(C)C)[C@@H]3[C@@H](O)[C@@H]21 (some centres undefined) [Doxycycline],99.6 ± 4.2%

# Same assay, conditions: 0.1 µM; 72 h; co-treatment: DMSO vehicle
row,SMILES,cell viability
1,Cc1c(Cl)cccc1S(=O)(=O)Nc1nc(CC(=O)N2CCN(C)CC2)cs1 [BVT-2733],98.9 ± 2%
2,CCc1oc2ccccc2c1C(=O)c1cc(Br)c(O)c(Br)c1 [Benzbromarone],101 ± 4%
3,CCOC(=O)c1sc(NC(=O)c2ccco2)c(SC#N)c1C [CBR-5884],98.9 ± 5.8%
4,O=C(/C=C/c1ccc(O)c(O)c1)OCCc1ccccc1 [Caffeic acid phenethyl ester],98.75 ± 0.36%
5,CCCCCOC(=O)Nc1nc(=O)n([C@@H]2O[C@H](C)[C@@H](O)[C@H]2O)cc1F [Capecitabine],106 ± 3%
6,Cc1ccc(-c2cc(C(F)(F)F)nn2-c2ccc(S(N)(=O)=O)cc2)cc1 [Celecoxib],100 ± 3.8%
7,O=c1c(-c2ccc(O)cc2)coc2cc(O[C@@H]3O[C@H](CO)[C@@H](O)[C@H](O)[C@H]3O)ccc12 [Daidzin],101.7 ± 0.79%
8,CCN(CC)C(=S)SSC(=S)N(CC)CC [Disulfiram],105 ± 3.3%
9,c1cc(-c2cnn3cc(-c4ccc(OCCN5CCCCC5)cc4)cnc23)ccn1 [Dorsomorphin],99.9 ± 1.4%
10,C[C@H]1c2cccc(O)c2C(=O)C2C(=O)[C@]3(O)C(=O)C(C(N)=O)C(=O)[C@@H](N(C)C)[C@@H]3[C@@H](O)[C@@H]21 (some centres undefined) [Doxycycline],104 ± 2%

# Same assay, conditions: 0.1 µM; 72 h; co-treatment: GSK2194069 100 nM
row,SMILES,cell viability
1,Cc1c(Cl)cccc1S(=O)(=O)Nc1nc(CC(=O)N2CCN(C)CC2)cs1 [BVT-2733],97 ± 2.4%
2,CCc1oc2ccccc2c1C(=O)c1cc(Br)c(O)c(Br)c1 [Benzbromarone],105 ± 9.6%
3,CCOC(=O)c1sc(NC(=O)c2ccco2)c(SC#N)c1C [CBR-5884],90.6 ± 12%
4,O=C(/C=C/c1ccc(O)c(O)c1)OCCc1ccccc1 [Caffeic acid phenethyl ester],102 ± 4.3%
5,CCCCCOC(=O)Nc1nc(=O)n([C@@H]2O[C@H](C)[C@@H](O)[C@H]2O)cc1F [Capecitabine],99.36 ± 0.11%
6,Cc1ccc(-c2cc(C(F)(F)F)nn2-c2ccc(S(N)(=O)=O)cc2)cc1 [Celecoxib],97.67 ± 0.35%
7,O=c1c(-c2ccc(O)cc2)coc2cc(O[C@@H]3O[C@H](CO)[C@@H](O)[C@H](O)[C@H]3O)ccc12 [Daidzin],102 ± 3.5%
8,CCN(CC)C(=S)SSC(=S)N(CC)CC [Disulfiram],102 ± 7%
9,c1cc(-c2cnn3cc(-c4ccc(OCCN5CCCCC5)cc4)cnc23)ccn1 [Dorsomorphin],104 ± 1.1%
10,C[C@H]1c2cccc(O)c2C(=O)C2C(=O)[C@]3(O)C(=O)C(C(N)=O)C(=O)[C@@H](N(C)C)[C@@H]3[C@@H](O)[C@@H]21 (some centres undefined) [Doxycycline],99.5 ± 5.7%

# Same assay, conditions: 0.1 µM; 72 h; co-treatment: pictilisib 100 nM
row,SMILES,cell viability
1,Cc1c(Cl)cccc1S(=O)(=O)Nc1nc(CC(=O)N2CCN(C)CC2)cs1 [BVT-2733],96.6 ± 2.2%
2,CCc1oc2ccccc2c1C(=O)c1cc(Br)c(O)c(Br)c1 [Benzbromarone],97.7 ± 4.2%
3,CCOC(=O)c1sc(NC(=O)c2ccco2)c(SC#N)c1C [CBR-5884],81.8 ± 26%
4,O=C(/C=C/c1ccc(O)c(O)c1)OCCc1ccccc1 [Caffeic acid phenethyl ester],96.7 ± 7.8%
5,CCCCCOC(=O)Nc1nc(=O)n([C@@H]2O[C@H](C)[C@@H](O)[C@H]2O)cc1F [Capecitabine],95.4 ± 13%
6,Cc1ccc(-c2cc(C(F)(F)F)nn2-c2ccc(S(N)(=O)=O)cc2)cc1 [Celecoxib],96.2 ± 5.6%
7,O=c1c(-c2ccc(O)cc2)coc2cc(O[C@@H]3O[C@H](CO)[C@@H](O)[C@H](O)[C@H]3O)ccc12 [Daidzin],105 ± 3.9%
8,CCN(CC)C(=S)SSC(=S)N(CC)CC [Disulfiram],107 ± 2.5%
9,c1cc(-c2cnn3cc(-c4ccc(OCCN5CCCCC5)cc4)cnc23)ccn1 [Dorsomorphin],94.8 ± 11%
10,C[C@H]1c2cccc(O)c2C(=O)C2C(=O)[C@]3(O)C(=O)C(C(N)=O)C(=O)[C@@H](N(C)C)[C@@H]3[C@@H](O)[C@@H]21 (some centres undefined) [Doxycycline],99.2 ± 1.6%

# Same assay, conditions: 1 µM; 72 h; co-treatment: AZD3965 100 nM
row,SMILES,cell viability
1,Cc1c(Cl)cccc1S(=O)(=O)Nc1nc(CC(=O)N2CCN(C)CC2)cs1 [BVT-2733],98.13 ± 0.69%
2,CCc1oc2ccccc2c1C(=O)c1cc(Br)c(O)c(Br)c1 [Benzbromarone],102 ± 2.5%
3,CCOC(=O)c1sc(NC(=O)c2ccco2)c(SC#N)c1C [CBR-5884],106 ± 3.2%
4,O=C(/C=C/c1ccc(O)c(O)c1)OCCc1ccccc1 [Caffeic acid phenethyl ester],103 ± 3.5%
5,CCCCCOC(=O)Nc1nc(=O)n([C@@H]2O[C@H](C)[C@@H](O)[C@H]2O)cc1F [Capecitabine],102 ± 2.5%
6,Cc1ccc(-c2cc(C(F)(F)F)nn2-c2ccc(S(N)(=O)=O)cc2)cc1 [Celecoxib],106 ± 7.8%
7,O=c1c(-c2ccc(O)cc2)coc2cc(O[C@@H]3O[C@H](CO)[C@@H](O)[C@H](O)[C@H]3O)ccc12 [Daidzin],84.8 ± 30%
8,CCN(CC)C(=S)SSC(=S)N(CC)CC [Disulfiram],96.7 ± 4.4%
9,c1cc(-c2cnn3cc(-c4ccc(OCCN5CCCCC5)cc4)cnc23)ccn1 [Dorsomorphin],99.9 ± 0.26%
10,C[C@H]1c2cccc(O)c2C(=O)C2C(=O)[C@]3(O)C(=O)C(C(N)=O)C(=O)[C@@H](N(C)C)[C@@H]3[C@@H](O)[C@@H]21 (some centres undefined) [Doxycycline],96.7 ± 8.5%

# Same assay, conditions: 1 µM; 72 h; co-treatment: DMSO vehicle
row,SMILES,cell viability
1,Cc1c(Cl)cccc1S(=O)(=O)Nc1nc(CC(=O)N2CCN(C)CC2)cs1 [BVT-2733],98.1 ± 1.3%
2,CCc1oc2ccccc2c1C(=O)c1cc(Br)c(O)c(Br)c1 [Benzbromarone],103 ± 2.3%
3,CCOC(=O)c1sc(NC(=O)c2ccco2)c(SC#N)c1C [CBR-5884],105 ± 2.1%
4,O=C(/C=C/c1ccc(O)c(O)c1)OCCc1ccccc1 [Caffeic acid phenethyl ester],98.83 ± 0.38%
5,CCCCCOC(=O)Nc1nc(=O)n([C@@H]2O[C@H](C)[C@@H](O)[C@H]2O)cc1F [Capecitabine],99.7 ± 1.6%
6,Cc1ccc(-c2cc(C(F)(F)F)nn2-c2ccc(S(N)(=O)=O)cc2)cc1 [Celecoxib],105 ± 8.1%
7,O=c1c(-c2ccc(O)cc2)coc2cc(O[C@@H]3O[C@H](CO)[C@@H](O)[C@H](O)[C@H]3O)ccc12 [Daidzin],98.92 ± 0.91%
8,CCN(CC)C(=S)SSC(=S)N(CC)CC [Disulfiram],94 ± 5.5%
9,c1cc(-c2cnn3cc(-c4ccc(OCCN5CCCCC5)cc4)cnc23)ccn1 [Dorsomorphin],95.21 ± 0.44%
10,C[C@H]1c2cccc(O)c2C(=O)C2C(=O)[C@]3(O)C(=O)C(C(N)=O)C(=O)[C@@H](N(C)C)[C@@H]3[C@@H](O)[C@@H]21 (some centres undefined) [Doxycycline],102 ± 1.5%

# Same assay, conditions: 1 µM; 72 h; co-treatment: GSK2194069 100 nM
row,SMILES,cell viability
1,Cc1c(Cl)cccc1S(=O)(=O)Nc1nc(CC(=O)N2CCN(C)CC2)cs1 [BVT-2733],88.4 ± 7.7%
2,CCc1oc2ccccc2c1C(=O)c1cc(Br)c(O)c(Br)c1 [Benzbromarone],102.3 ± 0.5%
3,CCOC(=O)c1sc(NC(=O)c2ccco2)c(SC#N)c1C [CBR-5884],98.2 ± 3.5%
4,O=C(/C=C/c1ccc(O)c(O)c1)OCCc1ccccc1 [Caffeic acid phenethyl ester],97.1 ± 1.9%
5,CCCCCOC(=O)Nc1nc(=O)n([C@@H]2O[C@H](C)[C@@H](O)[C@H]2O)cc1F [Capecitabine],102 ± 1.4%
6,Cc1ccc(-c2cc(C(F)(F)F)nn2-c2ccc(S(N)(=O)=O)cc2)cc1 [Celecoxib],103 ± 6.2%
